Laboratory results as given in PMC10425983 (ACS Infectious Diseases, 2023).

Experiments:
CYP3A4 = CYP3A4 (Homo sapiens, UniProt P08684); assay: CYP inhibition CYP3A4; format: in vitro ADME; conditions: inhibitor class in words
[1] = Thermodynamic aqueous solubility; format: physicochemical
[2] = MDCK-wt permeability assay; format: in vitro ADME, canine; conditions: dog
CYP2C8 = target: T1, CYP2C8 (Homo sapiens, UniProt P10632); assay: CYP inhibition CYP2C8; format: in vitro ADME
T1 sequence (P10632 1-490): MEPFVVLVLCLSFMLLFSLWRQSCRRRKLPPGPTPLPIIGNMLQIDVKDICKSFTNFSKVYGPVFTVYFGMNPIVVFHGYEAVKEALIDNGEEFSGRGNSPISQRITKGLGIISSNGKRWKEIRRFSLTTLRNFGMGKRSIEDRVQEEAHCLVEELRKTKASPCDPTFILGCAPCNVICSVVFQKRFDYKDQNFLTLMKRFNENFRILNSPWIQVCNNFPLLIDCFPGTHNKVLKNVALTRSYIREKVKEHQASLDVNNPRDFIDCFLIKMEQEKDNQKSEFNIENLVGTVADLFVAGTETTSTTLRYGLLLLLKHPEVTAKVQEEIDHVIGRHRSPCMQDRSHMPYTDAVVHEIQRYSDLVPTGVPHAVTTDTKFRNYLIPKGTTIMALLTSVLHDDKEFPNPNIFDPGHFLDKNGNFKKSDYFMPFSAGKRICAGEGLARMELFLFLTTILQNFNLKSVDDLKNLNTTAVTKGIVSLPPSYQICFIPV

CYP2C9 = CYP2C9 (Homo sapiens, UniProt P11712); assay: CYP inhibition CYP2C9; format: in vitro ADME
[3] = Cytotoxicity toward primary peritoneal mouse macrophages; format: cell-based; conditions: Swiss, mouse, primary peritoneal mouse macrophages (PMM), PMM pCC50, primary mouse macrophages; highest in-test concentration 64 μM
CYP1A2 = target: T2, CYP1A2 (Homo sapiens, UniProt P05177); assay: CYP inhibition CYP1A2; format: in vitro ADME
T2 sequence (P05177 1-516): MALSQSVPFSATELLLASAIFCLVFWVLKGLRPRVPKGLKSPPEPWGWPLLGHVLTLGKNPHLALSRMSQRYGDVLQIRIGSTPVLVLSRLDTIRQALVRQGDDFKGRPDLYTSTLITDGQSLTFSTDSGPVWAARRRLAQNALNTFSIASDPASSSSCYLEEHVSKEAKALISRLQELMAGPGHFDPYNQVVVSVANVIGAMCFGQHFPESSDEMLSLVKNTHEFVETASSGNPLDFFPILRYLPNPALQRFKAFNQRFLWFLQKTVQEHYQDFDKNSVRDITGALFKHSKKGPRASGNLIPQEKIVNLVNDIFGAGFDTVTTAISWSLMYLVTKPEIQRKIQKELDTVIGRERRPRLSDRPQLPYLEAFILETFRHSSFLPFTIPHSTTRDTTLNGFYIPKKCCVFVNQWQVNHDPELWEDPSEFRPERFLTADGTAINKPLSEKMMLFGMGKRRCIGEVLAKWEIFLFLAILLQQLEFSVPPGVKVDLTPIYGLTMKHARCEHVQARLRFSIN

CYP2C19 = CYP2C19 (Homo sapiens, UniProt P33261); assay: CYP inhibition CYP2C19; format: in vitro ADME
[4] = system: L. infantum (MHOM/MA(BE)/67/ITMAP263) amastigotes; assay: L. infantum intramacrophage amastigote assay; format: cell-based, Leishmania infantum
[5] = Human liver microsome intrinsic clearance; format: in vitro ADME; conditions: human, human liver microsomes, pH 7.4, HLM clint
[6] = Rat hepatocyte intrinsic clearance; format: in vitro ADME; conditions: rat, rat hepatocytes
hERG = hERG (Homo sapiens, UniProt Q12809); assay: hERG channel blockage; format: biochemical; conditions: hERG pIC50
CYP2D6 = CYP2D6 (Homo sapiens, UniProt P10635); assay: CYP inhibition CYP2D6; format: in vitro ADME; conditions: inhibitor class in words
Chain of CYP2D6 (P10635 whole entry): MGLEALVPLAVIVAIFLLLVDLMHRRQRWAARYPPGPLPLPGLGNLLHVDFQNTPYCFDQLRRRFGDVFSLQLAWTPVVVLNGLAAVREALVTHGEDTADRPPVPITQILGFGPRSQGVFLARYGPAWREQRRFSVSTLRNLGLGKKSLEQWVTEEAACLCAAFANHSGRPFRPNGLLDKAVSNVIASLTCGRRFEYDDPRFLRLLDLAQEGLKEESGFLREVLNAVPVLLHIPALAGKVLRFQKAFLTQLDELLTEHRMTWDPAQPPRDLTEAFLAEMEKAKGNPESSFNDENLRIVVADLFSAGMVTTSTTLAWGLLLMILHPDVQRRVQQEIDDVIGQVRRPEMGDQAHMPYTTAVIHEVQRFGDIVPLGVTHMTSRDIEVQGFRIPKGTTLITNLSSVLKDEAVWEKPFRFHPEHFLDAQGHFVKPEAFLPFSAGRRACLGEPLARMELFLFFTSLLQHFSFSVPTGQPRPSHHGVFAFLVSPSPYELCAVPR

Chain of CYP2C19 (P33261 whole entry): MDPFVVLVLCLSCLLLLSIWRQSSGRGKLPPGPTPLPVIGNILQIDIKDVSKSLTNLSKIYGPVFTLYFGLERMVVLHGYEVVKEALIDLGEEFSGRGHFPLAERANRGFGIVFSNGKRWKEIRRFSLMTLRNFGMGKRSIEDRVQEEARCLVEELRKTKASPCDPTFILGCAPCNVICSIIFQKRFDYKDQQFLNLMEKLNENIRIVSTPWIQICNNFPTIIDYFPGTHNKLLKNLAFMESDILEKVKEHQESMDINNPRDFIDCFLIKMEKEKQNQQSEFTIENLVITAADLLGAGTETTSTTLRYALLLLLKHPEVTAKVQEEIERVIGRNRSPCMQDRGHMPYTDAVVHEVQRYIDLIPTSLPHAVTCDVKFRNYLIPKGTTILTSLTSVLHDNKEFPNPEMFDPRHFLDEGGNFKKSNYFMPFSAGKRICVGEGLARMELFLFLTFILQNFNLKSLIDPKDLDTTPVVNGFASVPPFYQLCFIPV
Chain of CYP2C9 (P11712 whole entry): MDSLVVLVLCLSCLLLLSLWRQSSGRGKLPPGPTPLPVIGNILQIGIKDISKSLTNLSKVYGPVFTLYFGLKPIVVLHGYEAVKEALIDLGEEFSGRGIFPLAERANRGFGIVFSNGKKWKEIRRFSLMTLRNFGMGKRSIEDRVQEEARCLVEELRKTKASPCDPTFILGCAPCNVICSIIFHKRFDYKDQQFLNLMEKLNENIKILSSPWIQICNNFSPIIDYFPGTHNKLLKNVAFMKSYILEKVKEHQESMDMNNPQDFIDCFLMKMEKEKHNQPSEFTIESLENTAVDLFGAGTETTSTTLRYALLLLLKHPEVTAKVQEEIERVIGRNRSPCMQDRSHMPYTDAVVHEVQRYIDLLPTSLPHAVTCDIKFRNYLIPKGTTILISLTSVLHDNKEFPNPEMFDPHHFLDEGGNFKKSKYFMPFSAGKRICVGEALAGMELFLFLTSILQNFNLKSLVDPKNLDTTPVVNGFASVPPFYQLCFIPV
Chain of hERG (Q12809 whole entry): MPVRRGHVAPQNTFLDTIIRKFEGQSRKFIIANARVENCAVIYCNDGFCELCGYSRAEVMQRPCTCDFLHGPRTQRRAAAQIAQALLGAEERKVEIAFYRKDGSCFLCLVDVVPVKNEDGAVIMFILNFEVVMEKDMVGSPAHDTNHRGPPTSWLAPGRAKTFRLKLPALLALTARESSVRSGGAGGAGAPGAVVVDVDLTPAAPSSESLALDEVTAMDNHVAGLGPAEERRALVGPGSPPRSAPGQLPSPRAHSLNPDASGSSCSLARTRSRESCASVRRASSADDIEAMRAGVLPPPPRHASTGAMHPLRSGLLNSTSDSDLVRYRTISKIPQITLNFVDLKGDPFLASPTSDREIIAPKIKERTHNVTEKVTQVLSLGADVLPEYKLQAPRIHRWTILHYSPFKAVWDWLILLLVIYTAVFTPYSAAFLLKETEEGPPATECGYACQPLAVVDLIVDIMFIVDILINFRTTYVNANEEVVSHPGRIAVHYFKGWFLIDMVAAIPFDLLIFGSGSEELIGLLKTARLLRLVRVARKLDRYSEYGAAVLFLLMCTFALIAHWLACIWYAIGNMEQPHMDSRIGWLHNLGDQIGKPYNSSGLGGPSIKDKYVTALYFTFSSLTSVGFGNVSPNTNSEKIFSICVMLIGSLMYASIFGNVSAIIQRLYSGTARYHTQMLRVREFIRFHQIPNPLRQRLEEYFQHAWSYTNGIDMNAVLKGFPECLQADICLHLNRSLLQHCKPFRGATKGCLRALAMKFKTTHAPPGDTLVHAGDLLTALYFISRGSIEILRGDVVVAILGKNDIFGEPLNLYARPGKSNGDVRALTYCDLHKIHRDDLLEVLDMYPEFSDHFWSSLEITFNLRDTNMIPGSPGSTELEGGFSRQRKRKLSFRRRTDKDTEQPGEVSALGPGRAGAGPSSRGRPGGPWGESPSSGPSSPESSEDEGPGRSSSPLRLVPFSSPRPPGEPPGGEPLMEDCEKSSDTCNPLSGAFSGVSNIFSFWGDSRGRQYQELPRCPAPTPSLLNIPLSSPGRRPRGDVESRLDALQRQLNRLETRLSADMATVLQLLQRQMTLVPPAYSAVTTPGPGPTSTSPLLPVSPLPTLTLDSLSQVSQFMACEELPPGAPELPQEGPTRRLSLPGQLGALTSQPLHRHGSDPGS
Chain of CYP3A4 (P08684 whole entry): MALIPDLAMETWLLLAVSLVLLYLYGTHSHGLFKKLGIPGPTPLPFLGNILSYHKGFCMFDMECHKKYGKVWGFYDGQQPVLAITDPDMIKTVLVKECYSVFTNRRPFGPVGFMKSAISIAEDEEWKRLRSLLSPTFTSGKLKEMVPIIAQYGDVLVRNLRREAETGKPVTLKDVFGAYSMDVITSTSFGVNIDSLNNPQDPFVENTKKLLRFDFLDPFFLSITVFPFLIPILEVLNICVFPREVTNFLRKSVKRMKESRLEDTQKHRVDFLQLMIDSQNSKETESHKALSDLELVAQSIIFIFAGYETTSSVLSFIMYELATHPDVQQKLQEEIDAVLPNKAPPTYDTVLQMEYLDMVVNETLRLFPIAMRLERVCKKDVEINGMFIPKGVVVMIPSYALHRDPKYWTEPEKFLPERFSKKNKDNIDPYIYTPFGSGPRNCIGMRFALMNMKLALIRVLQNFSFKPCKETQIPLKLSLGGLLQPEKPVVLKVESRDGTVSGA

CYP3A4 inhibition, classification (CYP3A4): moderate inhibition | aq. sol. [1]: 0.7 µM | Papp A→B at 2 h, 10 µM [2]: 16.7 ×10⁻⁶ cm/s | IC50 (CYP2C8): 4.9 µM | CYP2C8 inhibition, classification (CYP2C8; inhibitor class in words): moderate inhibitor | IC50 (CYP2C9): 0.76 µM | CYP2C9 inhibition, classification (CYP2C9; inhibitor class in words): strong inhibitor | IC50 (CYP1A2): 0.59 µM | CYP1A2 inhibition, classification (CYP1A2; inhibitor class in words): strong inhibitor | IC50 (CYP2C19): 1.8 µM | CYP2C19 inhibition, classification (CYP2C19; inhibitor class in words): moderate inhibitor | EC50 ([4]; Leishmania infantum, 120 h, read-out: L.inf pEC50 (converted)): 6.31 µM | microsomal CLint at 3 µM [5]: 91.6 µL/min/mg | hepatocyte CLint [6]: 148 µL/min/1e6 cells | CYP2D6 inhibition, classification (CYP2D6): moderate inhibition
SMILES: Fc1ccc(Nc2c(-c3ccccn3)nc3ccc(C4CC4)cn23)cc1 [Compound 3p, 6-Cyclopropyl-N-(4-fluorophenyl)-2-(pyridin-2-yl)imidazo[1,2-a]pyridin-3-amine]
CC50 at 5 days [3]: 7.94 µM | SI ([4]; ratio CC50 μM (PMM)/EC50 μM (L.inf)): 1 | IC50 (hERG): 12.6 µM
